Reference: ChEMBL document CHEMBL3045301, “Pharmacophore modeling of some novel indole -diketo acid and coumarin-based derivatives as HIV integrase inhibitors” (Med Chem Res, 2012)

What follows are molecules tested against Human immunodeficiency virus type 1 integrase (Human immunodeficiency virus 1, UniProt Q7ZJM1) (assay: Inhibition of Human immunodeficiency virus 1 integrase).
Human immunodeficiency virus type 1 integrase, sequence (Q7ZJM1 whole entry): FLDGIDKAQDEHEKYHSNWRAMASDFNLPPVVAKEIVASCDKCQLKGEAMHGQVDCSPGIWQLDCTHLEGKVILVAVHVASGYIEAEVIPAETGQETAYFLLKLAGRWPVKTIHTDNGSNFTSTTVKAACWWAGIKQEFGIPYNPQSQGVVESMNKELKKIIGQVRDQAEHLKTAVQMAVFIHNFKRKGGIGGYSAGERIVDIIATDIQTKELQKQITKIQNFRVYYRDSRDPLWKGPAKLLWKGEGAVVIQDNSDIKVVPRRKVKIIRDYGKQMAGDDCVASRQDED
Molecule `O=C(O)/C(O)=C/C(=O)c1cn(Cc2ccccc2)c2ccccc12` has an IC50 of 1 µM.
For `O=c1oc2ccccc2c(O)c1Cc1ccc(Cc2c(O)c3ccccc3oc2=O)cc1`, the IC50 was 69.2 µM.
In the case of `O=c1oc2cc(O)ccc2c(O)c1C(c1cccnc1)c1c(O)c2ccc(O)cc2oc1=O`, the IC50 is reported as 25 µM.
For `O=c1oc2cc(O)ccc2c(O)c1C(c1ccc2c(c1)CC=CC2)c1c(O)c2ccc(O)cc2oc1=O`, the IC50 was 3.5 µM.
Molecule `O=c1oc2ccccc2c(O)c1C(c1ccc(OCc2ccccc2)c(OCc2ccccc2)c1)c1c(O)c2ccccc2oc1=O` has an IC50 of 12 µM.
In the case of `O=c1oc2cc(O)ccc2c(O)c1C(c1ccc(CCc2ccccc2)cc1)c1c(O)c2ccc(O)cc2oc1=O`, the IC50 is reported as 1.8 µM.
`O=c1oc2ccccc2c(O)c1-c1ccccc1-c1c(O)c2ccccc2oc1=O` showed an IC50 of 20.4 µM.
Molecule `O=c1oc2ccccc2c(O)c1-c1cccc(-c2c(O)c3ccccc3oc2=O)c1` has an IC50 of 11 µM.
`CCn1cc(C(=O)/C=C(\O)C(=O)O)c2ccccc21` showed an IC50 of 3 µM.
`CCn1cc(C(=O)/C=C(\O)C(=O)O)c2cc3c(cc21)OCO3` showed an IC50 of 3 µM.
Molecule `O=c1oc2ccccc2c(O)c1C(c1cnc2c(c1)CC=CC2)c1c(O)c2ccccc2oc1=O` has an IC50 of 23 µM.
`O=c1oc2ccccc2c(O)c1C(c1ccc2c(c1)CC=CC2)c1c(O)c2ccccc2oc1=O` was tested, and the IC50 was 16 µM.
Molecule `Cn1c(C(=O)/C=C(\O)C(=O)O)cc2ccccc21` has an IC50 of 6 µM.
`Cn1c(C(=O)/C=C(\O)C(=O)O)cc2cc3c(cc21)OCO3` showed an IC50 of 2 µM.
Molecule `CCn1c(C(=O)/C=C(\O)C(=O)O)cc2ccccc21` has an IC50 of 1.6 µM.
`CCn1c(C(=O)/C=C(\O)C(=O)O)cc2cc3c(cc21)OCO3` gave an IC50 of 5 µM.
With `O=C(O)/C(O)=C/C(=O)c1cc2ccccc2n1Cc1ccccc1` the IC50 was 1 µM.
`O=C(O)/C(O)=C/C(=O)c1cc2cc3c(cc2n1Cc1ccccc1)OCO3` gave an IC50 of 2 µM.
With `Cn1cc(C(=O)/C=C(\O)C(=O)O)c2ccccc21` the IC50 was 2 µM.
`Cn1cc(C(=O)/C=C(\O)C(=O)O)c2cc3c(cc21)OCO3` showed an IC50 of 3 µM.
Molecule `O=c1oc2ccccc2c(O)c1C(c1cccs1)c1c(O)c2ccccc2oc1=O` has an IC50 of 148 µM.
`O=c1oc2cc(O)ccc2c(O)c1Cc1c(O)c2ccc(O)cc2oc1=O` showed an IC50 of 44.9 µM.
Work on `CN(C)c1ccc(C(c2c(O)c3ccccc3oc2=O)c2c(O)c3ccccc3oc2=O)cc1` yielded an IC50 of 49 µM.
With `O=c1oc2ccccc2c(O)c1C(c1ccc(-c2ccccc2)cc1)c1c(O)c2ccccc2oc1=O` the IC50 was 13 µM.
Molecule `O=c1oc2ccccc2c(O)c1C(c1ccccc1)c1c(O)c2ccccc2oc1=O` has an IC50 of 38 µM.
`O=c1oc2cc(O)ccc2c(O)c1C(c1ccccc1)c1c(O)c2ccc(O)cc2oc1=O` gave an IC50 of 22.2 µM.
Work on `O=c1oc2ccccc2c(O)c1C(c1ccco1)c1c(O)c2ccccc2oc1=O` yielded an IC50 of 132 µM.
Work on `O=c1oc2ccccc2c(O)c1C(c1ccc(O)cc1)c1c(O)c2ccccc2oc1=O` yielded an IC50 of 74.1 µM.
In the case of `O=c1oc2ccccc2c(O)c1C(c1cccc(C(c2c(O)c3ccccc3oc2=O)c2c(O)c3ccccc3oc2=O)c1)c1c(O)c2ccccc2oc1=O`, the IC50 is reported as 1.2 µM.
`O=c1oc2cc(O)ccc2c(O)c1C(c1ccc(C(c2c(O)c3ccc(O)cc3oc2=O)c2c(O)c3ccc(O)cc3oc2=O)cc1)c1c(O)c2ccc(O)cc2oc1=O` gave an IC50 of 3.03 µM.
